# Active and inactive are the calls of the source. No cut-off for these calls is given here.
# Columns and labels:
# Type in all cases: functional, subcellular
# [1] = species on record: Rattus norvegicus; experiment: Increase in [3H]GABA uptake initial velocity in Wistar rat synaptosomes measured per mg of protein pretreated at 100 uM for 20 mins by scintillation counting (reference value: 153 +/- 7.7 pmol/min*mg of protein)
# [2] = species on record: Rattus norvegicus; experiment: Increase in [3H]GABA uptake initial velocity in Wistar rat synaptosomes measured per mg of protein at 100 uM by scintillation counting (reference value: 205.4 +/- 5 pmol/min*mg of protein)
# [3] = species on record: Rattus norvegicus; experiment: Increase in [3H]GABA uptake initial velocity in Wistar rat synaptosomes measured per mg of protein pretreated at 100 uM for 20 mins with combined application of 30 uM NO-711 GAT1 blocker by scintillation counting
# [4] = species on record: Rattus norvegicus; experiment: Increase in [3H]GABA uptake initial velocity in Wistar rat synaptosomes measured per mg of protein pretreated at 200 uM for 20 mins by scintillation counting
# [5] = species on record: Rattus norvegicus; experiment: Increase in [3H]GABA uptake initial velocity in Wistar rat synaptosomes measured per mg of protein at 200 uM by scintillation counting
# [6] = species on record: Rattus norvegicus; experiment: Increase in [3H]GABA uptake initial velocity in Wistar rat synaptosomes measured per mg of protein pretreated at 100 uM for 20 mins with combined application of 50 uM SNAP5114 GAT3 blocker by scintillation counting
SMILES,Activity [1] [pmol/min/mg],Activity [2] [pmol/min/mg],Activity [3],Activity [4],Activity [5],Activity [6] [pmol/min/mg]
CC(C)C[C@H](CN)CC(=O)O,182,211,inactive,,,
NC[C@@](O)(CC(=O)O)C(F)(F)F,189,194,27.9 pmol/min/mg,Active,inactive,128
NC[C@@H](CC(=O)O)C(F)(F)F,179,211,23.7 pmol/min/mg,Active,inactive,120
NCC(CC(=O)O)C(F)(F)C(F)F (racemic),188,198,27.4 pmol/min/mg,Active,inactive,125

# From ChEMBL document CHEMBL3593185, “Synthesis of new fluorinated analogs of GABA, Pregabalin bioisosteres, and their effects on [(3)H]GABA uptake by rat brain nerve terminals” (Bioorg Med Chem, 2015)
